The values below come from ChEMBL document CHEMBL3596165, “Synthesis, structure elucidation and identification of antiproliferative activities of a novel class of thiophene bioisosteres bearing the privileged 7,8-dihydroimidazo[2,1-c][1,2,4]triazin-4(6H)-one scaffold” (Bioorg Med Chem, 2015).

Bounds are passed on as bounds.

The subject of series [1] is TOV112D. Briefly: Antiproliferative activity against human TOV112D cells at 50 ug/ml after 24 hrs by BrdUrd incorporation assay. The class given is functional. Particulars: read-out: GI.
For series [2], the system named is Vero. Briefly: Antiproliferative activity against African green monkey Vero cells after 24 hrs by BrdUrd incorporation assay. The class given is cell-based. Particulars: chlorocebus sabaeus.
Series [3] deals with HeLa. Briefly: Antiproliferative activity against human HeLa cells after 48 hrs by BrdUrd incorporation assay. The class given is functional, cell-based.
The test system of series [4] is HeLa. The experiment in a line: Antiproliferative activity against human HeLa cells after 24 hrs by BrdUrd incorporation assay. The class given is functional, cell-based.
Series [5] is described as follows: Antiproliferative activity against African green monkey Vero cells at 50 ug/ml after 72 hrs by BrdUrd incorporation assay. The class given is cell-based. Particulars: chlorocebus sabaeus, read-out: GI.
Series [6] concerns Vero. Briefly: Antiproliferative activity against African green monkey Vero cells at 50 ug/ml after 24 hrs by BrdUrd incorporation assay. In kind it is cell-based. To be noted: chlorocebus sabaeus.
Series [7] deals with T47D. Briefly: Antiproliferative activity against human T47D cells after 72 hrs by BrdUrd incorporation assay. In kind it is functional, cell-based.
Series [8] concerns HeLa. Briefly: Antiproliferative activity against human HeLa cells at 50 ug/ml after 72 hrs by BrdUrd incorporation assay. The class given is functional. To be noted: read-out: GI.
Series [9] relates to A549. Briefly: Antiproliferative activity against human A549 cells after 24 hrs by BrdUrd incorporation assay. The class given is functional, cell-based. To be noted: A549, 24 h.
Series [10] relates to Vero. The experiment in a line: Antiproliferative activity against African green monkey Vero cells after 48 hrs by BrdUrd incorporation assay. Particulars: Chlorocebus sabaeus. In kind it is cell-based.
Series [11] has as its system TOV112D. The experiment in a line: Antiproliferative activity against human TOV112D cells after 24 hrs by BrdUrd incorporation assay. The class given is functional, cell-based.
Series [12] deals with TOV112D. Briefly: Antiproliferative activity against human TOV112D cells at 50 ug/ml after 48 hrs by BrdUrd incorporation assay. In kind it is functional. To be noted: read-out: GI.
In series [13] the test system is TOV112D. Briefly: Antiproliferative activity against human TOV112D cells at 50 ug/ml after 72 hrs by BrdUrd incorporation assay. In kind it is functional. Particulars: read-out: GI.
Series [14] is described as follows: Antiproliferative activity against African green monkey Vero cells at 50 ug/ml after 48 hrs by BrdUrd incorporation assay. Particulars: chlorocebus sabaeus, read-out: GI. In kind it is cell-based.
Series [15] concerns HeLa. The experiment in a line: Antiproliferative activity against human HeLa cells at 50 ug/ml after 48 hrs by BrdUrd incorporation assay. In kind it is functional. Particulars: read-out: GI.
In series [16] the test system is A549. Briefly: Antiproliferative activity against human A549 cells after 72 hrs by BrdUrd incorporation assay. In kind it is functional, cell-based. To be noted: A549, 72 h.
Series [17] concerns T47D. Briefly: Antiproliferative activity against human T47D cells after 48 hrs by BrdUrd incorporation assay. In kind it is functional, cell-based.
Series [18] relates to TOV112D. The experiment in a line: Antiproliferative activity against human TOV112D cells after 72 hrs by BrdUrd incorporation assay. The class given is functional, cell-based.
For series [19], the system named is T47D. Briefly: Antiproliferative activity against human T47D cells at 50 ug/ml after 24 hrs by BrdUrd incorporation assay. The class given is functional. Particulars: read-out: GI.
For series [20], the system named is T47D. The experiment in a line: Antiproliferative activity against human T47D cells at 50 ug/ml after 72 hrs by BrdUrd incorporation assay. To be noted: read-out: GI. In kind it is functional.
The subject of series [21] is T47D. The experiment in a line: Antiproliferative activity against human T47D cells after 24 hrs by BrdUrd incorporation assay. In kind it is functional, cell-based.
Series [22] relates to TOV112D. The experiment in a line: Antiproliferative activity against human TOV112D cells after 48 hrs by BrdUrd incorporation assay. The class given is functional, cell-based.
Series [23] deals with A549. Briefly: Antiproliferative activity against human A549 cells at 50 ug/ml after 72 hrs by BrdUrd incorporation assay. The class given is functional. To be noted: A549, 72 h, read-out: GI.
Series [24] has as its system Vero. The experiment in a line: Antiproliferative activity against African green monkey Vero cells after 72 hrs by BrdUrd incorporation assay. Particulars: Chlorocebus sabaeus. The class given is cell-based.
Series [25] concerns T47D. The experiment in a line: Antiproliferative activity against human T47D cells at 50 ug/ml after 48 hrs by BrdUrd incorporation assay. In kind it is functional. Particulars: read-out: GI.
In series [26] the test system is A549. Briefly: Antiproliferative activity against human A549 cells at 50 ug/ml after 24 hrs by BrdUrd incorporation assay. In kind it is functional. To be noted: A549, 24 h, read-out: GI.
The subject of series [27] is A549. The experiment in a line: Antiproliferative activity against human A549 cells at 50 ug/ml after 48 hrs by BrdUrd incorporation assay. In kind it is functional. To be noted: A549, 48 h, read-out: GI.
Series [28] relates to HeLa. The experiment in a line: Antiproliferative activity against human HeLa cells at 50 ug/ml after 24 hrs by BrdUrd incorporation assay. In kind it is functional. Particulars: read-out: GI.
In series [29] the test system is HeLa. The experiment in a line: Antiproliferative activity against human HeLa cells after 72 hrs by BrdUrd incorporation assay. In kind it is functional, cell-based.
Series [30] relates to A549. The experiment in a line: Antiproliferative activity against human A549 cells after 48 hrs by BrdUrd incorporation assay. Particulars: A549, 48 h. The class given is functional, cell-based.

Broadly, the IC50 is the concentration at which inhibition is half-maximal. Turning to `Cc1cccc(N2CCn3c2nnc(-c2cccs2)c3=O)c1C`, the inhibition of growth at 50 µg/mL came out at 40% in the series with TOV112D [1]; 75% in the series with HeLa [8]; 75% in the series on TOV112D [12]; 95% in the series with TOV112D [13]; 65% with HeLa [15]; 90% in the series on T47D [19]. For the same compound, the inhibition of growth at 50 µg/mL in the series on T47D [20] stood at 100%; in the series on A549 [23], 90%; in the series with T47D [25], 100%; in the series on A549 [26], 45%; in the series on A549 [27], 60%; in the series on HeLa [28] it was 50%. The 50% inhibitory concentration (IC50) is above 150 µM in the series on Vero [2]; 120 µM in the series on HeLa [3]; 150 µM in the series with HeLa [4]; 80 µM in the series with T47D [7]; above 150 µM with A549 [9]; 140 µM in the series on Vero [10]. Further, the IC50 is above 150 µM in the series with TOV112D [11]; 90 µM in the series with A549 [16]; 80 µM in the series with T47D [17]; 80 µM in the series with TOV112D [18]; 90 µM with T47D [21]; 100 µM with TOV112D [22]. Further, the IC50 in the series on Vero [24] amounted to 90 µM; in the series with HeLa [29], 100 µM; in the series with A549 [30], 130 µM. Moreover, in series [5], the inhibition at 72 h, 50 ug/ml was 90%. In addition, the “growth inhibition (GI)” value with Vero [6] was found to be 25%. Moreover, the inhibition at 48 h, 50 ug/ml in [14] is 55%.

On to `O=c1c(-c2cccs2)nnc2n1CCN2c1ccccc1Cl`, for which the inhibition of growth at 50 µg/mL in the series with TOV112D [1] is 80%; with HeLa [8], 90%; in the series with TOV112D [12] it was 95%; in the series on TOV112D [13], 100%; in the series on HeLa [15], 80%; with T47D [19] it was 95%. The inhibition of growth at 50 µg/mL stood at 100% with T47D [20]; 95% with A549 [23]; 100% with T47D [25]; 75% with A549 [26]; 95% in the series with A549 [27]; 50% in the series with HeLa [28]. For the same compound, the IC50 with Vero [2] was 150 µM; in the series with HeLa [3] it was 90 µM; with HeLa [4], 150 µM; in the series with T47D [7] it was 80 µM; in the series with A549 [9], 100 µM; in the series with Vero [10], 130 µM. For the same compound, the IC50 was 90 µM with TOV112D [11]; 80 µM in the series on A549 [16]; 80 µM in the series on T47D [17]; 80 µM in the series with TOV112D [18]; 80 µM in the series with T47D [21]; 80 µM in the series on TOV112D [22]. In addition, the figures for the concentration for half-maximal inhibition (IC50) in the series on Vero [24], in the series with HeLa [29] and with A549 [30] were 100 µM, 80 µM and 80 µM, respectively. The inhibition at 72 h, 50 ug/ml in series [5] was 75%. Also, the “growth inhibition (GI)” value in the series on Vero [6] is reported as 50%. Also, the inhibition at 48 h, 50 ug/ml in [14] is 60%.

For `COc1ccccc1N1CCn2c1nnc(-c1cccs1)c2=O`, the inhibition of growth at 50 µg/mL was determined as 75% in the series on TOV112D [1]; 80% in the series with HeLa [8]; 80% in the series on TOV112D [12]; 90% with TOV112D [13]; 60% with HeLa [15]; 80% with T47D [19]. Besides, the inhibition of growth at 50 µg/mL was 95% in the series with T47D [20]; 90% with A549 [23]; 90% with T47D [25]; 70% with A549 [26]; 80% in the series with A549 [27]; 50% in the series with HeLa [28]. Also, the IC50 in the series on Vero [2] is 150 µM; in the series on HeLa [3] it was 130 µM; with HeLa [4], 150 µM; in the series with T47D [7], 80 µM; with A549 [9], 110 µM; in the series with Vero [10], 100 µM. Also, the IC50 came to 100 µM with TOV112D [11]; 80 µM in the series on A549 [16]; 90 µM with T47D [17]; 80 µM with TOV112D [18]; 100 µM with T47D [21]; 100 µM in the series on TOV112D [22]. The concentration for half-maximal inhibition (IC50) with Vero [24] was found to be 90 µM; in the series with HeLa [29] it was 100 µM; in the series with A549 [30] it was 100 µM. In addition, the inhibition at 72 h, 50 ug/ml in [5] was 90%. For the same compound, the “growth inhibition (GI)” value in the series on Vero [6] is recorded as 50%. For the same compound, the inhibition at 48 h, 50 ug/ml in series [14] stood at 75%.

As for `O=c1c(-c2ccco2)nnc2n1CCN2c1ccccc1`, the inhibition of growth at 50 µg/mL in the series on HeLa [8] turned out to be 100%; in the series on HeLa [15], 75%; in the series with T47D [19] it was 50%; with T47D [20], 95%; with T47D [25] it was 85%; with HeLa [28], 50%.

For the compound `Cc1cccc(N2CCn3c2nnc(-c2ccco2)c3=O)c1C`, the inhibition of growth at 50 µg/mL was 90% in the series on HeLa [8]; 75% in the series with HeLa [15]; 0% in the series with T47D [19]; 25% with T47D [20]; 15% with T47D [25]; 60% in the series with HeLa [28].

On to `Cc1ccc(N2CCn3c2nnc(-c2ccco2)c3=O)cc1`, for which the inhibition of growth at 50 µg/mL in the series with HeLa [8] was determined as 80%; with HeLa [15], 50%; in the series on T47D [19], 40%; in the series on T47D [20], 80%; in the series on T47D [25], 60%; in the series with HeLa [28], 50%.
